Test results as given in PubChem BioAssay AID330 (DTP/NCI, 2004).
Values joined by “and” are separate entries in the source; they are usually repeats but may differ in a detail not shown here. Identical values can stand only once. Inconclusive results and toxic doses are left out.

Test system: P388 leukemia ip, CD2F1 mice, survival T/C
Assay: NCI In Vivo Anticancer Drug Screen. Data for tumor model P388 Leukemia (intraperitoneal) in CD2F1 (CDF1) mice
Settings: endpoint: median survival time, higher = longer survival
How it was run: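 Mice carrying the transplanted tumor received test compound or vehicle. Survival was recorded in each group, and the value is the treated-group measurement divided by that of the vehicle-treated control group.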

[1] = dose: 50.0 mg/kg/injection, schedule: Q01DX005 (ip), vehicle: Klucel (hydroxypropylcellulose) (HPC)
[2] = dose: 100.0 mg/kg/injection, schedule: Q01DX005 (ip), vehicle: Klucel (hydroxypropylcellulose) (HPC)
[3] = dose: 200.0 mg/kg/injection, schedule: Q01DX005 (ip), vehicle: Klucel (hydroxypropylcellulose) (HPC)
[4] = dose: 50.0 mg/kg/injection, schedule: Q01DX009 (ip), vehicle: saline with Tween-80
[5] = dose: 50.0 mg/kg/injection, schedule: Q01DX005 (ip), vehicle: saline with Tween-80
[6] = dose: 100.0 mg/kg/injection, schedule: Q01DX005 (ip), vehicle: saline with Tween-80
[7] = dose: 50.0 mg/kg/injection, schedule: Q01DX009 (ip), vehicle: Klucel (hydroxypropylcellulose) (HPC)
[8] = dose: 100.0 mg/kg/injection, schedule: Q01DX009 (ip), vehicle: Klucel (hydroxypropylcellulose) (HPC)
[9] = dose: 200.0 mg/kg/injection, schedule: Q01DX009 (ip), vehicle: Klucel (hydroxypropylcellulose) (HPC)
[10] = dose: 200.0 mg/kg/injection, schedule: Q01DX005 (ip), vehicle: saline with Tween-80
[11] = dose: 60.0 mg/kg/injection, schedule: Q01DX005 (ip), vehicle: saline with Tween-80
[12] = dose: 120.0 mg/kg/injection, schedule: Q01DX005 (ip), vehicle: saline with Tween-80
[13] = dose: 240.0 mg/kg/injection, schedule: Q01DX005 (ip), vehicle: saline with Tween-80

In the case of `COc1ccc2c(c1)OC(C)(C)C(c1ccccc1)=C2c1ccc(OCCBr)cc1`, the T/C [1] is reported as 101 % of control, the T/C [2] is reported as 98 % of control and the T/C [3] is reported as 100 % of control.
With `CN(C)C(=S)c1cccc(-c2ccccn2)n1` the T/C (dose: 50.0 mg/kg/injection, schedule: Q04DX003 (ip), vehicle: Klucel (hydroxypropylcellulose) (HPC)) was 95 % of control, the T/C (dose: 100.0 mg/kg/injection, schedule: Q04DX003 (ip), vehicle: Klucel (hydroxypropylcellulose) (HPC)) was 96 % of control and the T/C (dose: 200.0 mg/kg/injection, schedule: Q04DX003 (ip), vehicle: Klucel (hydroxypropylcellulose) (HPC)) was 91 % of control.
With `O=C(/C=C/c1cccc([N+](=O)[O-])c1)c1ccccc1` the T/C [4] was 99 % of control, the T/C (dose: 100.0 mg/kg/injection, schedule: Q01DX009 (ip), vehicle: saline with Tween-80) was 92 % of control and the T/C (dose: 200.0 mg/kg/injection, schedule: Q01DX009 (ip), vehicle: saline with Tween-80) was 92 % of control. For the same molecule, the T/C (dose: 400.0 mg/kg/injection, schedule: Q01DX009 (ip), vehicle: saline with Tween-80) was 100 % of control.
`Cc1c2oc3c(C)ccc(C(=O)NC(C(=O)NC(C(=O)O)C(C)C)C(C)O)c3nc-2c(C(=O)NC(C(=O)NC(C(=O)O)C(C)C)C(C)O)c(N)c1=O` (configuration not stated) was tested, and the T/C (dose: 0.05 mg/kg/injection, schedule: Q01DX009 (ip), vehicle: water) was 100 % of control, the T/C (dose: 0.1 mg/kg/injection, schedule: Q01DX009 (ip), vehicle: water) was 97 % of control and the T/C (dose: 0.2 mg/kg/injection, schedule: Q01DX009 (ip), vehicle: water) was 94 % of control. For the same molecule, the T/C (dose: 0.4 mg/kg/injection, schedule: Q01DX009 (ip), vehicle: water) was 99 % of control, the T/C (dose: 0.8 mg/kg/injection, schedule: Q01DX009 (ip), vehicle: water) was 97 % of control and the T/C (dose: 1.6 mg/kg/injection, schedule: Q01DX009 (ip), vehicle: water) was 102 % of control.
For `COC(=O)C12OCC34C(OC(=O)C(OC(=O)C=C(C)C)C13)C(OC(C)=O)C1C(C)=CC(=O)CC1(C)C4C(O)C2O` (configuration not stated) (tested in a mixture with another compound), the T/C (dose: 13.0 micrograms/kg/injection, schedule: Q01DX009 (ip), vehicle: saline + alcohol) was 96 % of control, the T/C (dose: 25.0 micrograms/kg/injection, schedule: Q01DX009 (ip), vehicle: saline + alcohol) was 97 % of control and the T/C (dose: 50.0 micrograms/kg/injection, schedule: Q01DX009 (ip), vehicle: saline + alcohol) was 100 % of control. For the same molecule, the T/C (dose: 100.0 micrograms/kg/injection, schedule: Q01DX009 (ip), vehicle: saline + alcohol) was 101 % of control, the T/C (dose: 190.0 micrograms/kg/injection, schedule: Q01DX009 (ip), vehicle: saline + alcohol) was 102 % of control and the T/C (dose: 380.0 micrograms/kg/injection, schedule: Q01DX009 (ip), vehicle: saline + alcohol) was 102 % of control. The T/C (dose: 750.0 micrograms/kg/injection, schedule: Q01DX009 (ip), vehicle: saline + alcohol) was 106 % of control.
For `COc1ccc(C(C)c2cc3c(cc2OCC(=O)O)OCO3)cc1OC` (configuration not stated), the T/C (dose: 50.0 mg/kg/injection, schedule: Q01DX005 (ip), vehicle: distilled water + Tween-80) was 95 % of control and the T/C (dose: 100.0 mg/kg/injection, schedule: Q01DX005 (ip), vehicle: distilled water + Tween-80) was 102 % of control.
In the case of `CCC(C)C(NC(=O)C(C)Oc1cc(Cl)c(Cl)cc1Cl)C(=O)O` (configuration not stated), the T/C [5] is reported as 92 % of control and the T/C [6] is reported as 101 % of control.
For `CCC(O)CC1OC2(CCC1C)CC1OC(=O)/C=C\C(C)(O)C(O)C(C)C(O)C(OC3CC(OC)C(O)C(C)O3)C(O)C(C)(O)CCC/C=C/C3CC(C)COC3(O)CC(O2)C1C` (configuration not stated), the T/C (dose: 1.0 mg/kg/injection, schedule: Q01DX005 (ip), vehicle: saline + alcohol) was 100 % of control and the T/C (dose: 2.0 mg/kg/injection, schedule: Q01DX005 (ip), vehicle: saline + alcohol) was 104 % of control.
With `OCCN(CCO)CC(O)COc1cccc2ccccc12` (configuration not stated) the T/C (dose: 12.5 mg/kg/injection, schedule: Q01DX009 (ip), vehicle: saline) was 98 % of control and 116 % of control, the T/C (dose: 25.0 mg/kg/injection, schedule: Q01DX009 (ip), vehicle: saline) was 110 % of control and 96 % of control and the T/C (dose: 50.0 mg/kg/injection, schedule: Q01DX009 (ip), vehicle: saline) was 103 % of control and 107 % of control. For the same molecule, the T/C (dose: 100.0 mg/kg/injection, schedule: Q01DX009 (ip), vehicle: saline) was 104 % of control and 97 % of control and the T/C (dose: 200.0 mg/kg/injection, schedule: Q01DX009 (ip), vehicle: saline) was 110 % of control and 115 % of control.
With `CCC(=NCCN=C(CC)c1cc(C)ccc1O)c1cc(C)ccc1O` the T/C [1] was 101 % of control, the T/C [2] was 108 % of control and the T/C [3] was 111 % of control.
For `CSc1nc2ccc(N=Cc3ccccc3O)cc2s1`, the T/C [7] was 91 % of control, the T/C [8] was 89 % of control and the T/C [9] was 100 % of control.
In the case of `COC(=O)/C=C\C1(CCC(=O)OC)N=C(c2ccccc2)OC1=O` (configuration not stated), the T/C [5] is reported as 101 % of control, the T/C [6] is reported as 92 % of control and the T/C [10] is reported as 96 % of control.
`CCOC(=O)Nc1nn(-c2ccccn2)c(=O)[nH]1` was tested, and the T/C (dose: 50.0 mg/kg/injection, schedule: Q01DX005 (ip), vehicle: distilled water + alcohol) was 107 % of control, the T/C (dose: 100.0 mg/kg/injection, schedule: Q01DX005 (ip), vehicle: distilled water + alcohol) was 101 % of control and the T/C (dose: 200.0 mg/kg/injection, schedule: Q01DX005 (ip), vehicle: distilled water + alcohol) was 99 % of control.
For `CCOc1cc2c(cc1C(CC)c1ccccc1)OCO2` (configuration not stated), the T/C [1] was 99 % of control, the T/C [2] was 96 % of control and the T/C [3] was 95 % of control.
`CC(=O)Nc1cc(N(CCOS(C)(=O)=O)CCOS(C)(=O)=O)ccc1N=O` was tested, and the T/C (dose: 0.08 mg/kg/injection, schedule: Q01DX009 (ip), vehicle: saline) was 154 % of control, the T/C (dose: 1.25 mg/kg/injection, schedule: Q04DX003 (ip), vehicle: saline sonified) was 168 % of control and the T/C (dose: 2.5 mg/kg/injection, schedule: Q04DX003 (ip), vehicle: saline sonified) was 177 % of control. For the same molecule, the T/C (dose: 75.0 micrograms/kg/injection, schedule: Q01DX009 (ip), vehicle: saline) was 159 % of control and the T/C (dose: 150.0 micrograms/kg/injection, schedule: Q01DX009 (ip), vehicle: saline) was 159 % of control.
With `CCCCC(=O)Nc1ncc([N+](=O)[O-])s1` the T/C (dose: 25.0 mg/kg/injection, schedule: Q01DX009 (ip), vehicle: Klucel (hydroxypropylcellulose) (HPC)) was 110 % of control, the T/C [7] was 102 % of control and 104 % of control and 116 % of control and the T/C [8] was 101 % of control and 103 % of control and 113 % of control. For the same molecule, the T/C [9] was 105 % of control and 111 % of control and 123 % of control.
`Cc1ccc(S(=O)(=O)Nc2cc(C)c3c(c2C)CCN=C3)cc1` was tested, and the T/C (dose: 12.5 mg/kg/injection, schedule: Q01DX009 (ip), vehicle: distilled water + Tween-80) was 93 % of control, the T/C (dose: 25.0 mg/kg/injection, schedule: Q01DX009 (ip), vehicle: distilled water + Tween-80) was 91 % of control and the T/C (dose: 50.0 mg/kg/injection, schedule: Q01DX009 (ip), vehicle: distilled water + Tween-80) was 88 % of control. The T/C (dose: 100.0 mg/kg/injection, schedule: Q01DX009 (ip), vehicle: distilled water + Tween-80) was 93 % of control and the T/C (dose: 200.0 mg/kg/injection, schedule: Q01DX009 (ip), vehicle: distilled water + Tween-80) was 91 % of control.
With `Nc1nn(-c2ccc(Br)cc2)c2cccc[n+]12` the T/C (dose: 12.5 mg/kg/injection, schedule: Q01DX009 (ip), vehicle: saline with Tween-80) was 105 % of control, the T/C (dose: 25.0 mg/kg/injection, schedule: Q01DX009 (ip), vehicle: other) was 115 % of control and the T/C (dose: 25.0 mg/kg/injection, schedule: Q01DX009 (ip), vehicle: saline with Tween-80) was 100 % of control. For the same molecule, the T/C (dose: 50.0 mg/kg/injection, schedule: Q01DX009 (ip), vehicle: other) was 97 % of control and the T/C [4] was 100 % of control and 97 % of control.
In the case of `OCC1CCCC1CO` (configuration not stated), the T/C [5] is reported as 106 % of control and 101 % of control, the T/C [6] is reported as 105 % of control and 101 % of control and the T/C [10] is reported as 100 % of control and 114 % of control.
For `COC(=O)c1nc(=S)[nH]c(C(=O)OC)c1C(=O)c1cc(Cl)ccc1Cl`, the T/C [11] was 96 % of control, the T/C [12] was 101 % of control and the T/C [13] was 100 % of control.
`O=C1c2ccccc2C(=O)N1C1Nc2ccccc2N1` was tested, and the T/C [11] was 99 % of control, the T/C [12] was 99 % of control and the T/C [13] was 96 % of control.
With `COc1ccc(C2CCCC(CCc3ccc(O)cc3)O2)cc1` (configuration not stated) the T/C [1] was 100 % of control, the T/C [2] was 103 % of control and the T/C [3] was 100 % of control.
`[O-][n+]1ccccc1C[P+](c1ccccc1)(c1ccccc1)c1ccccc1` was tested, and the T/C (dose: 6.25 mg/kg/injection, schedule: Q01DX009 (ip), vehicle: water) was 99 % of control, the T/C (dose: 12.5 mg/kg/injection, schedule: Q01DX009 (ip), vehicle: water) was 100 % of control and 86 % of control and the T/C (dose: 25.0 mg/kg/injection, schedule: Q01DX009 (ip), vehicle: water) was 95 % of control. For the same molecule, the T/C (dose: 50.0 mg/kg/injection, schedule: Q01DX009 (ip), vehicle: water) was 100 % of control and 98 % of control.
In the case of `CN1C(=O)CN(CN2CCOCC2)C1=O`, the T/C [1] is reported as 106 % of control, the T/C [2] is reported as 115 % of control and the T/C [3] is reported as 117 % of control.
